Source: paper PMC9945734 (BMC Medicine, 2023)
Like-named read-outs stand apart in the source and are kept apart here.

What was measured:
[1] = system: PC-3-KQ cells; assay: 3D spheroid invasion assay and screening of FDA-approved drugs; format: cell-based, human; conditions: for activity at 0.01 µM / activity at 0.1 µM / activity at 1 µM / activity at 10 µM / inhibition at 0.1 µM: Homo sapiens; for activity at 0.01 µM / activity at 0.1 µM / activity at 1 µM / activity at 10 µM: 72 h, read-out: Invasion rates (%) of each drug’s multiple concentrations; for activity at 0.01 µM / activity at 0.1 µM / activity at 1 µM / activity at 10 µM / Invasion rates (%) of each drug’s multiple concentrations (μM): compared to vehicle control; for inhibition at 0.1 µM: read-out: inhibition of cell invasion
Procedure, shortened: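 Cells were clustered into spheroids by centrifugation and grown 3 days, then embedded in matrigel-medium containing drug on day 4 and cultured another 3 days. Drugs were screened at 10 μM first, then at 0–10 μM, in duplicate wells. Invasion area is total area minus core sphere area from phase-contrast images.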

[2] = system: DU 145 (KLF5 null) cells expressing KLF5^K369R; assay: CCK-8 cell viability assay; format: cell-based; conditions: Homo sapiens, CCK-8, 48 h
Protocol: (§1) According to the manufacturer's instructions, cell viability was measured using a kit from Beyotime Biotechnology. Briefly, cells were seeded onto 96-well plates at 5 × 10^3 cells per well, incubated overnight, and then treated for 48 h with drugs at 0, 0.02, 0.05, 0.14, 0.41, 1.23, 3.7, 11.1, 33.3, and 100 μM. Four drugs were analyzed: furagin, nifuratel, nitazoxanide, and retapamulin. At the end of drug treatment, the medium was removed, the CCK-8 solution was added into each well at 100 μL/well and incubated for 1.5 h at 37°C, and the optical density (OD) was measured at 450 nm using a microplate reader (BioTek).

[3] = system: DU 145 (KLF5 null) cells expressing KLF5; assay: CCK-8 cell viability assay; format: cell-based; conditions: Homo sapiens, CCK-8, 48 h
Protocol: as §1

[4] = system: PC-3 (KLF5 null) cells expressing KLF5^K369R; assay: CCK-8 cell viability assay; format: cell-based; conditions: Homo sapiens, CCK-8, 48 h
Protocol: as §1

[5] = system: PC-3 (KLF5 null) cells expressing KLF5; assay: CCK-8 cell viability assay; format: cell-based; conditions: Homo sapiens, CCK-8, 48 h
Protocol: as §1

[6] = system: DU 145 (KLF5 null) cells expressing KLF5^K369Q; assay: CCK-8 cell viability assay; format: cell-based, human; conditions: Homo sapiens; DU 145 (KLF5 null), KLF5^K369Q; CCK-8, 48 h
Protocol: as §1
(§2) We also tested a wider range of NTZ concentrations in PC-3-KQ and DU 145-KQ cells using the CCK-8 assay by seeding 2 × 10^3 cells and 2.5 × 10^3 cells onto each well of 96-well plates. PC-3-KQ cells were treated with NTZ at 0, 0.01, 0.1, […], 2.5, and 5 μM, while DU 145-KQ cells were treated with NTZ at 0, 0.01, 0.1, 5, 10, and 20 μM for 0, 24, 48, and 72 h. The number of viable cells was determined using the CCK-8 solution as described above.

[7] = system: PC-3 (KLF5 null) cells expressing KLF5^K369Q; assay: CCK-8 cell viability assay; format: cell-based, human; conditions: Homo sapiens; PC-3 (KLF5 null), KLF5^K369Q; CCK-8, 48 h
Protocol: as §1, §2

[8] = target: T1, KLF5 protein (Homo sapiens, UniProt Q13887); assay: Fluorescence titration (quenching) of KLF5 protein; conditions: read-out: binding constant Kd
T1 construct: made in house; host or cells: E. coli BL21 DE3
T1 sequence (Q13887 whole entry): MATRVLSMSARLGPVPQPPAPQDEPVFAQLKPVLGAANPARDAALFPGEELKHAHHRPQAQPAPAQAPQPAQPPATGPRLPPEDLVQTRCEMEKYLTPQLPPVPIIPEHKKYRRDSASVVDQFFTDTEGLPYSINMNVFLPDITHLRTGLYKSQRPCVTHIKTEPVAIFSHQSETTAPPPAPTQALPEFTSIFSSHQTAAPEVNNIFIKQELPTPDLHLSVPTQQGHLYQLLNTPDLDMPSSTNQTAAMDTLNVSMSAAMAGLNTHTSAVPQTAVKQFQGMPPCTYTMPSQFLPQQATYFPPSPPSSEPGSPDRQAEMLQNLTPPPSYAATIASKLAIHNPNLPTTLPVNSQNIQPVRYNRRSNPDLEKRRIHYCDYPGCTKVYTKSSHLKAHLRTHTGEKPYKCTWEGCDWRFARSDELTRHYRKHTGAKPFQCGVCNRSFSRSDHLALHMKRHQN
Protocol: (§3) Wild-type or mutant KLF5 protein at 1 μM in 2 mL PBS was measured for fluorescence spectrum using a fluorescence spectrometer (HORIBA, Kyoto, Japan), and the fluorescence spectra were obtained for wavelengths of 300–500 nm. NTZ with various concentration ranges and various increments were used in the analysis, including 0.1–1 μM with an increment of 0.1 μM, 1–5 μM with an increment of 0.5 μM, 5–10 μM with an increment of 1 μM, and 10–30 μM with an increment of 5 μM. The incubation with NTZ was for 5 s at room temperature. Data were processed and fitted to obtain the binding affinities using the Origin software (OriginLab, Northampton, MA, USA), and Kd values were determined by the responses at […] wavelength.

[9] = target: T2, KLF5^K369Q protein (Homo sapiens, UniProt Q13887, K369Q); assay: Fluorescence titration (quenching) of KLF5 protein; conditions: read-out: binding constant Kd
T2 construct: made in house; host or cells: E. coli BL21 DE3
T2 sequence (Q13887 whole entry K369Q): as the sequence (Q13887 whole entry) above, with K369Q counted along it
Protocol: as §3

[10] = target: T3, KLF5^K369R protein (Homo sapiens, UniProt Q13887, K369R); assay: Fluorescence titration (quenching) of KLF5 protein; conditions: read-out: binding constant Kd
T3 construct: made in house; host or cells: E. coli BL21 DE3
T3 sequence (Q13887 whole entry K369R): as the sequence (Q13887 whole entry) above, with K369R counted along it
Protocol: as §3

[11] = 0.01 μM (first column so headed), secondary screening of 87 hit compounds (Table S1)
[12] = 0.01 μM (first column so headed), third screening of 25 hit compounds (Table S2)
[13] = 0.01 μM (second column so headed), third screening of 25 hit compounds (Table S2)
[14] = 0.1 μM, secondary screening of 87 hit compounds (Table S1)
[15] = 0.1 μM, third screening of 25 hit compounds (Table S2)
[16] = 1 μM, secondary screening of 87 hit compounds (Table S1)
[17] = 1 μM, third screening of 25 hit compounds (Table S2)
[18] = 10 μM, secondary screening of 87 hit compounds (Table S1)
[19] = 10 μM, third screening of 25 hit compounds (Table S2)
[20] = 0.01 μM (second column so headed), secondary screening of 87 hit compounds (Table S1)

| IC50 [4] [µM] | IC50 [5] [µM] | IC50 [7] [µM] | Structure (SMILES) | activity at 0.01 µM [1, 11] [%] | activity at 0.01 µM [1, 12] [%] | activity at 0.01 µM [1, 13] [%] | activity at 0.1 µM [1, 14] [%] | activity at 0.1 µM [1, 15] [%] | activity at 1 µM [1, 16] [%] | activity at 1 µM [1, 17] [%] | activity at 10 µM [1, 18] [%] | activity at 10 µM [1, 19] [%] | inhibition at 0.1 µM [1] [%] | IC50 [2] [µM] | IC50 [3] [µM] | IC50 [6] [µM] | activity at 0.01 µM [1, 20] [%] | Invasion rates (%) of each drug’s multiple concentrations (μM) [1, 11] [%] | Invasion rates (%) of each drug’s multiple concentrations (μM) [1, 20] [%] | Invasion rates (%) of each drug’s multiple concentrations (μM) [1, 14] [%] | also measured |
| --- | --- | --- | --- | --- | --- | --- | --- | --- | --- | --- | --- | --- | --- | --- | --- | --- | --- | --- | --- | --- | --- |
| 12.2 ± 1.1 | 1.6 ± 0.3 | 12.6 ± 2.3 | C=C[C@]1(C)C[C@@H](OC(=O)CS[C@@H]2C[C@H]3CC[C@@H](C2)N3C)[C@]2(C)[C@H](C)CC[C@]3(CCC(=O)[C@H]32)[C@@H](C)[C@@H]1O [Retapamulin] | 7.43 | 74.4 | 94.3 | 7.18 | 4.92 | 7.28 | 1.65 | 4.68 | 2.42 | > 50 | 11.1 ± 0.8 | 13.7 ± 2.7 | 14.7 ± 1.5 | – | – | – | – | – |
| – | – | – | CC1(C)CCC(C)(C)c2cc(NC(=O)c3ccc(C(=O)O)cc3)ccc21 [Am80] | – | – | – | – | – | – | – | – | – | – | – | – | – | – | – | – | – | Kd [8]: > 30 µM; Kd [9]: > 30 µM; Kd [10]: > 30 µM |
| 101 ± 27.9 | 17.3 ± 2.2 | 28.6 ± 1.9 | O=C1CN(/N=C/C=C/c2ccc([N+](=O)[O-])o2)C(=O)N1 [Furagin] | 24.8 | 77.1 | 97.5 | 5.95 | 2.26 | 3.36 | 2.3 | 2.18 | 1.29 | > 50 | 359 ± 127 | 31.4 ± 4 | 63.3 ± 2.4 | 42.2 | – | – | – | – |
| 18.7 ± 1 | 32 ± 1.6 | 18.6 ± 0.7 | CSCC1CN(/N=C/c2ccc([N+](=O)[O-])o2)C(=O)O1 (stereo not drawn) [Nifuratel] | 70 | 59.9 | 93.9 | 60.6 | 7.32 | 8.43 | 3.12 | 0.26 | 1.46 | > 50 | 14 ± 0.2 | 7.1 ± 0.7 | 16.2 ± 0.8 | 82.6 | – | – | – | – |
| – | – | – | Cc1ncc([N+](=O)[O-])n1CC(O)CN1CCOCC1 (single isomer, unassigned) [Morinidazole (R enantiomer)] | – | – | – | – | – | – | – | – | – | – | – | – | – | – | 90.71 | 98.08 | 89.69 | Invasion rates (%) of each drug’s multiple concentrations (μM) [1, 12]: 95.71%; Invasion rates (%) of each drug’s multiple concentrations (μM) [1, 13]: 97.64%; Invasion rates (%) of each drug’s multiple concentrations (μM) [1, 15]: 94.21%; Invasion rates (%) of each drug’s multiple concentrations (μM) [1, 16]: 10.13%; Invasion rates (%) of each drug’s multiple concentrations (μM) [1, 17]: 6.21%; Invasion rates (%) of each drug’s multiple concentrations (μM) [1, 18]: 2.86%; Invasion rates (%) of each drug’s multiple concentrations (μM) [1, 19]: 0.38% |
| – | – | – | CC(C)C[C@H](NC(=O)[C@H](Cc1ccccc1)NC(=O)c1cnccn1)B(O)O [Bortezomib] | 29.5 | 84.3 | 92.8 | 5.79 | 66.1 | 4.37 | 35.3 | 0.98 | 9.72 | – | – | – | – | 75.3 | – | – | – | – |
| – | – | – | CC/C(=C(\c1ccccc1)c1ccc(OCCN(C)C)cc1)c1ccccc1.O=C(O)CC(O)(CC(=O)O)C(=O)O [Tamoxifen (Citrate)] | – | – | – | – | – | – | – | – | – | – | – | – | – | – | 94.34 | 97.97 | 91.22 | Invasion rates (%) of each drug’s multiple concentrations (μM) [1, 16]: 85.65%; Invasion rates (%) of each drug’s multiple concentrations (μM) [1, 18]: 1.00% |
| – | – | – | N[C@@H](Cc1cc(I)c(Oc2ccc(O)c(I)c2)c(I)c1)C(=O)O [Liothyronine] | 93.5 | – | – | 93.3 | – | 92.5 | – | 50.6 | – | – | – | – | – | 97.4 | – | – | – | – |
| – | – | – | COc1cccc2c1C(=O)c1c(O)c3c(c(O)c1C2=O)C[C@@](O)(C(=O)CO)C[C@@H]3O[C@H]1C[C@H](N)[C@H](O)[C@H](C)O1.Cl [Doxorubicin (hydrochloride)] | – | – | – | – | – | – | – | – | – | – | – | – | – | – | 93.34 | 92.49 | 89.01 | Invasion rates (%) of each drug’s multiple concentrations (μM) [1, 18]: 1.92% |
